Legend:
[1] = system: Puccinia recondita f. Sp. Tritici; experiment: Fungicidal activity against Puccinia recondita f. sp. tritici / wheat / leaf disc curative (brown rust); type: in vivo; conditions: foliar, 24 h, 200 ppm in the applied formulation, wheat leaf segments, curative (applied 1 day after inoculation), compared to untreated control leaf disks, read-out: disease control
Procedure, shortened: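 Curative leaf-segment test: compound diluted in water applied 1 day after spore inoculation of cv. Kanzler wheat segments on agar. Conditions 19° C, 75% RH, 12 h/12 h light cycle. Read-out: % disease control relative to untreated check, 6 to 8 days after application.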

[2] = system: Puccinia recondita f. Sp. Tritici; experiment: Fungicidal activity against Puccinia recondita f. sp. tritici / wheat / leaf disc preventative (brown rust); type: in vivo; conditions: foliar, 200 ppm in the applied formulation, wheat leaf segments, preventative, compared to untreated control leaf disks, read-out: disease control
Procedure, shortened: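 Percent disease control relative to untreated check segments is scored once disease develops, 7 to 9 days after application. Wheat cv. Kanzler segments receive compound spray (200 ppm in formulation) one day before spore inoculation, then sit at 19° C. and 75% rh under 12 h light/12 h dark.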

[3] = system: Glomerella lagenarium (Colletotrichum lagenarium); experiment: Fungicidal activity against Glomerella lagenarium (Colletotrichum lagenarium) liquid culture / cucumber / preventative (anthracnose); type: cell-based; conditions: Colletotrichum orbiculare; 20 ppm in the applied formulation; liquid culture (PDB), growth inhibition measured photometrically after 3 to 4 days; compared to untreated control; read-out: disease control
Procedure, shortened: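 Percent activity against the untreated check was derived from photometric growth measurements made 2 to 7 days after conidia in potato dextrose broth were combined with compound at 20 ppm. Cultures were kept dark at 24 °C and 96% humidity.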

Phakopsora Pachyrhizi = experiment: Fungicidal activity against Phakopsora pachyrhizi / soybean / leaf disc preventative (Asian soybean rust); type: in vivo; conditions: foliar, 200 ppm in the applied formulation, soybean leaf disks, compared to untreated control leaf disks, read-out: disease control
Procedure, shortened: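 Scored 12 to 14 days post-application as percent control relative to untreated check discs, rust spores were sprayed under the disc one day after compound treatment. Incubation: 20°C, 75% rh, first 24–36 h in darkness, then 12 h daily light; discs kept on water agar.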

CC(C)C(=O)N(Cc1ccc(-c2noc(C(F)(F)F)n2)cc1)CC1CCCO1 (centres unmarked) [Compound 1.412, 2-methyl-N-(tetrahydrofuran-2-ylmethyl)-N-[[4-[5-(trifluoromethyl)-1,2,4-oxadiazol-3-yl]phenyl]methyl]-propanamide]
≥ 80%: pest or weed control at 200 ppm [1] | pest or weed control at 200 ppm [2] | inhibition of growth at 20 ppm [3] | pest or weed control at 200 ppm (Phakopsora Pachyrhizi)

CCCNC(=O)N(Cc1ccc(-c2noc(C(F)(F)F)n2)cc1)OC [Compound 3.21, 1-methoxy-3-propyl-1-[[4-[5 - (trifluoromethyl)-1,2,4-oxadiazol-3-yl]phenyl]methyl]urea]
≥ 80%: pest or weed control at 200 ppm [1] | pest or weed control at 200 ppm [2] | inhibition of growth at 20 ppm [3] | pest or weed control at 200 ppm (Phakopsora Pachyrhizi)

CCC(=O)N(CC)Cc1ccc(-c2noc(C(F)(F)F)n2)cc1 [Compound 1.497, N-ethyl-N-[[4-[5-(trifluoromethyl)-1,2,4-oxadiazol-3-yl]phenyl]methyl]-propanamide]
≥ 80%: pest or weed control at 200 ppm [1] | pest or weed control at 200 ppm [2] | inhibition of growth at 20 ppm [3] | pest or weed control at 200 ppm (Phakopsora Pachyrhizi)

COC(C)C(=O)N(Cc1ccc(-c2noc(C(F)(F)F)n2)c(F)c1)OC (centres unmarked) [Compound 1.783, N-[[3-fluoro-4-[5-(trifluoromethyl)-1,2,4-oxadiazol-3-yl]phenyl]methyl]-N,2-dimethoxy-propanamide]
≥ 80%: pest or weed control at 200 ppm [1] | pest or weed control at 200 ppm [2] | inhibition of growth at 20 ppm [3] | pest or weed control at 200 ppm (Phakopsora Pachyrhizi)

CON(Cc1ccc(-c2noc(C(F)(F)F)n2)c(F)c1)C(=O)C1CC1 [Compound 1.579, N-[[3-fluoro-4-[5-(trifluoromethyl)-1,2,4-oxadiazol-3-yl]phenyl]methyl]-N-methoxy-cyclopropane-carboxamide]
≥ 80%: pest or weed control at 200 ppm [1] | pest or weed control at 200 ppm [2] | inhibition of growth at 20 ppm [3] | pest or weed control at 200 ppm (Phakopsora Pachyrhizi)

C#CCN(Cc1ccc(-c2noc(C(F)(F)F)n2)cc1)C(=O)CC=CC [Compound 1.180, N-prop-2-ynyl-N-[[4-[5-(trifluoromethyl)-1,2.4-oxadiazol-3-yl]phenyl]methyl]-pent-3-enamide]
≥ 80%: pest or weed control at 200 ppm [1] | pest or weed control at 200 ppm [2] | inhibition of growth at 20 ppm [3] | pest or weed control at 200 ppm (Phakopsora Pachyrhizi)

O=C(C1CCC1)N(O)Cc1ccc(-c2noc(C(F)(F)F)n2)cc1 [Compound 1.761, N-hydroxy-N-[[4-[5-(trifluoromethyl)-1,2,4-oxadiazol-3-yl]phenyl]methyl]-cyclobutane-carboxamide]
≥ 80%: pest or weed control at 200 ppm [1] | pest or weed control at 200 ppm [2] | inhibition of growth at 20 ppm [3] | pest or weed control at 200 ppm (Phakopsora Pachyrhizi)

C#CCN(Cc1ccc(-c2noc(C(F)(F)F)n2)cc1)C(=O)C(C)CC (centres unmarked) [Compound 1.191, 2-methyl-N-prop-2-ynyl-N-[[4-[5-(trifluoromethyl)-1,2,4-oxadiazol-3-yl]phenyl]methy]-butanamide]
≥ 80%: pest or weed control at 200 ppm [1] | pest or weed control at 200 ppm [2] | inhibition of growth at 20 ppm [3] | pest or weed control at 200 ppm (Phakopsora Pachyrhizi)

CCCN(Cc1ccc(-c2noc(C(F)(F)F)n2)cc1)C(=O)CCOC [Compound 1.655, 3-methoxy-N-propyl-N-[[4-[5-(trifluoromethyl)-1,2,4-oxadiazol-3-yl]phenyl]methyl]-propanamide]
≥ 80%: pest or weed control at 200 ppm [1] | pest or weed control at 200 ppm [2] | inhibition of growth at 20 ppm [3] | pest or weed control at 200 ppm (Phakopsora Pachyrhizi)

CN(Cc1ccc(-c2noc(C(F)(F)F)n2)cc1)C(=O)C(C)(C)O [Compound 1.781, 2-hydroxy-N,2-dimethyl-N-[[4-[5-(trifluoromethyl)-1,2,4-oxadiazol-3-yl]phenyl]methyl]-propanamide]
≥ 80%: pest or weed control at 200 ppm [1] | pest or weed control at 200 ppm [2] | inhibition of growth at 20 ppm [3] | pest or weed control at 200 ppm (Phakopsora Pachyrhizi)

COC(C)C(=O)N(Cc1ccc(-c2noc(C(F)(F)F)n2)cc1)C1CC1 (centres unmarked) [Compound 1.147, N-cyclopropyl-2-methoxy-N-[[4-[5-(trifluoromethyl)-1,2,4-oxadiazol-3-yl]phenyl]methyl]-propanamide]
≥ 80%: pest or weed control at 200 ppm [1] | pest or weed control at 200 ppm [2] | inhibition of growth at 20 ppm [3] | pest or weed control at 200 ppm (Phakopsora Pachyrhizi)

C#CCN(Cc1ccc(-c2noc(C(F)(F)F)n2)cc1)C(=O)CCCOC [Compound 1.196, 4-methoxy-N-prop-2-ynyl-N-[[4-[5-(trifluoromethyl)-1,2,4-oxadiazol-3-yl]phenyl]methyl]-butanamide]
≥ 80%: pest or weed control at 200 ppm [1] | pest or weed control at 200 ppm [2] | inhibition of growth at 20 ppm [3] | pest or weed control at 200 ppm (Phakopsora Pachyrhizi)

CCC(C)N(Cc1ccc(-c2noc(C(F)(F)F)n2)cc1)C(=O)C1(C)COC1 (centres unmarked) [Compound 1.395, 3-methyl-N-sec-butyl-N-[[4-[5-(trifluoromethyl)-1,2,4-oxadiazol-3-yl]phenyl]methyl]-oxetane-3-carboxamide]
≥ 80%: pest or weed control at 200 ppm [1] | pest or weed control at 200 ppm [2] | inhibition of growth at 20 ppm [3] | pest or weed control at 200 ppm (Phakopsora Pachyrhizi)

CON(Cc1ccc(-c2noc(C(F)(F)F)n2)cc1)C(=O)NC1CCC1 [Compound 3.16, 3-cyclobutyl-1-methoxy-1-[[4-[5-(trifluoromethyl)-1,2,4-oxadiazol-3-yl]phenyl]methyl]urea]
≥ 80%: pest or weed control at 200 ppm [1] | pest or weed control at 200 ppm [2] | inhibition of growth at 20 ppm [3] | pest or weed control at 200 ppm (Phakopsora Pachyrhizi)

CCC(C)C(=O)N(Cc1ccc(-c2noc(C(F)(F)F)n2)cc1)Cc1ccco1 (centres unmarked) [Compound 1.466]
≥ 80%: pest or weed control at 200 ppm [1] | pest or weed control at 200 ppm [2] | inhibition of growth at 20 ppm [3] | pest or weed control at 200 ppm (Phakopsora Pachyrhizi)

CCC(C)C(=O)N(Cc1ccc(-c2noc(C(F)(F)F)n2)cc1)OC (centres unmarked) [Compound 1.48, N-methoxy-2-methyl-N-[[4-[5-(trifluoromethyl)-1,2,4-oxadiazol-3-yl]phenyl]methyl]-butanamide]
≥ 80%: pest or weed control at 200 ppm [1] | pest or weed control at 200 ppm [2] | inhibition of growth at 20 ppm [3] | pest or weed control at 200 ppm (Phakopsora Pachyrhizi)

COCC(=O)N(Cc1ccc(-c2noc(C(F)(F)F)n2)cc1)C1COC1 [Compound 1.613, 2-methoxy-N-(oxetan-3-yl)-N-[[4-[5-(trifluoromelhyl)-1,2,4-oxadiazol-3-yl]phenyl]methyl]-acetamide]
≥ 80%: pest or weed control at 200 ppm [1] | pest or weed control at 200 ppm [2] | inhibition of growth at 20 ppm [3] | pest or weed control at 200 ppm (Phakopsora Pachyrhizi)

CCC(C)N(Cc1ccc(-c2noc(C(F)(F)F)n2)cc1)C(=O)CCOC (centres unmarked) [Compound 1.379, 3-methoxy-N-sec-butyl-N-[[4-[5-(trifluoromethyl)-1,2,4-oxadiazol-3-yl]phenyl]methyl]-propanamide]
≥ 80%: pest or weed control at 200 ppm [1] | pest or weed control at 200 ppm [2] | inhibition of growth at 20 ppm [3] | pest or weed control at 200 ppm (Phakopsora Pachyrhizi)

CON(Cc1ccc(-c2noc(C(F)(F)F)n2)cc1)C(=O)NC1CCCC1 [Compound 3.23, 3-cyclopentyl-1-methoxy-1-[[4-[5-(trifluoromethyl)-1,2,4-oxadiazol-3-yl]phenyl]methyl]urea]
≥ 80%: pest or weed control at 200 ppm [1] | pest or weed control at 200 ppm [2] | inhibition of growth at 20 ppm [3] | pest or weed control at 200 ppm (Phakopsora Pachyrhizi)

CCN(Cc1ccc(-c2noc(C(F)(F)F)n2)cc1)C(=O)C1CC1(F)F (centres unmarked) [Compound 1.504, N-ethyl-2,2-difluoro-N-[[4-[5-(trifluoromethyl)-1,2,4-oxadiazol-3-yl]phenyl]methyl]-cyclopropane-carboxamide]
≥ 80%: pest or weed control at 200 ppm [1] | pest or weed control at 200 ppm [2] | inhibition of growth at 20 ppm [3] | pest or weed control at 200 ppm (Phakopsora Pachyrhizi)

CCON(Cc1ccc(-c2noc(C(F)(F)F)n2)cc1)C(=O)C1CC1 [Compound 1.564, N-ethoxy-N-[[4-[5-(trifluoromethyl)-1,2,4-oxadiazol-3-yl]phenyl]methyl]-cyclopropane-carboxamide]
≥ 80%: pest or weed control at 200 ppm [1] | pest or weed control at 200 ppm [2] | inhibition of growth at 20 ppm [3] | pest or weed control at 200 ppm (Phakopsora Pachyrhizi)

C#CCN(Cc1ccc(-c2noc(C(F)(F)F)n2)cc1)C(=O)C(C)CC(C)=O (centres unmarked) [Compound 1.164, 2-methyl-4-oxo-N-prop-2-ynyl-N-[[4-[5-(trifluoromethyl)-1,2,4-oxadiazol-3-yl]phenyl]methyl]-pentanamide]
≥ 80%: pest or weed control at 200 ppm [1] | pest or weed control at 200 ppm [2] | inhibition of growth at 20 ppm [3] | pest or weed control at 200 ppm (Phakopsora Pachyrhizi)

CCN(Cc1ccc(-c2noc(C(F)(F)F)n2)cc1)C(=O)C1CC1F (centres unmarked) [Compound 1.511, N-ethyl-2-fluoro-N-[[4-[5-(trifluoromethyl)-1,2,4-oxadiazol-3-yl]phenyl]methyl]-cyclopropane-carboxamide]
≥ 80%: pest or weed control at 200 ppm [1] | pest or weed control at 200 ppm [2] | inhibition of growth at 20 ppm [3] | pest or weed control at 200 ppm (Phakopsora Pachyrhizi)
